Laboratory results published in US6284785A, “1-arenesulfonyl-2-aryl-pyrrolidine and pyridine derivatives” (Hoffmann- La Roche Inc., priority 1999, dated 2001).
Where a name gives a salt, the structure may show the parent alone.

Molecular target: T1, rat mGlu 1a receptor (Rattus norvegicus, UniProt P23385)
T1 construct: expressed in transfected cells; host or cells: EBNA cells (transient transfection)
Test: [Ca2+]i measurements (FLIPR, Fluo-3 AM) on mGlu 1a transfected EBNA cells; agonist or antagonist (against 10 μM glutamate)
Format: cell-based
Conditions: for Remarks (agonist / antagonist): table of substituents of the Examples, column Remarks
Procedure: cDNA encoding rat mGlu 1a receptor obtained from Prof. Nakanishi (Kyoto, Japan) was transiently tranfected into EBNA cells using a procedure described by Schlaeger et. al, New Dev. New Appl. Anim Cell Techn., Proc. ESACT Meet., 15th (1998), 105-112 and 117-120. [Ca^2+ ]i measurements were performed on mGlu 1a transfected EBNA cells after incubation of the cells with Fluo-3 AM (0.5 μM final concentration) for 1hour at 37° C. followed by 4 washes with assay buffer (DMEM supplemented with Hank's salt and 20 mM HEPES. [Ca^2+ ]i measurements were done using a fluorometric imaging plate reader (FLIPR, Molecular Devices Corporation, La Jolla, Calif. USA). When compounds were evaluated as antagonists they were tested against 10 μM glutamate as agonist.
The inhibition (antagonists) or activation (agonists) curves were fitted with a four parameter logistic equation giving EC50, IC50, and Hill coefficient using the iterative non linear curve fitting software Origin (Microcal Software Inc., Northampton, Mass., USA).

T1 sequence (P23385 19-1199): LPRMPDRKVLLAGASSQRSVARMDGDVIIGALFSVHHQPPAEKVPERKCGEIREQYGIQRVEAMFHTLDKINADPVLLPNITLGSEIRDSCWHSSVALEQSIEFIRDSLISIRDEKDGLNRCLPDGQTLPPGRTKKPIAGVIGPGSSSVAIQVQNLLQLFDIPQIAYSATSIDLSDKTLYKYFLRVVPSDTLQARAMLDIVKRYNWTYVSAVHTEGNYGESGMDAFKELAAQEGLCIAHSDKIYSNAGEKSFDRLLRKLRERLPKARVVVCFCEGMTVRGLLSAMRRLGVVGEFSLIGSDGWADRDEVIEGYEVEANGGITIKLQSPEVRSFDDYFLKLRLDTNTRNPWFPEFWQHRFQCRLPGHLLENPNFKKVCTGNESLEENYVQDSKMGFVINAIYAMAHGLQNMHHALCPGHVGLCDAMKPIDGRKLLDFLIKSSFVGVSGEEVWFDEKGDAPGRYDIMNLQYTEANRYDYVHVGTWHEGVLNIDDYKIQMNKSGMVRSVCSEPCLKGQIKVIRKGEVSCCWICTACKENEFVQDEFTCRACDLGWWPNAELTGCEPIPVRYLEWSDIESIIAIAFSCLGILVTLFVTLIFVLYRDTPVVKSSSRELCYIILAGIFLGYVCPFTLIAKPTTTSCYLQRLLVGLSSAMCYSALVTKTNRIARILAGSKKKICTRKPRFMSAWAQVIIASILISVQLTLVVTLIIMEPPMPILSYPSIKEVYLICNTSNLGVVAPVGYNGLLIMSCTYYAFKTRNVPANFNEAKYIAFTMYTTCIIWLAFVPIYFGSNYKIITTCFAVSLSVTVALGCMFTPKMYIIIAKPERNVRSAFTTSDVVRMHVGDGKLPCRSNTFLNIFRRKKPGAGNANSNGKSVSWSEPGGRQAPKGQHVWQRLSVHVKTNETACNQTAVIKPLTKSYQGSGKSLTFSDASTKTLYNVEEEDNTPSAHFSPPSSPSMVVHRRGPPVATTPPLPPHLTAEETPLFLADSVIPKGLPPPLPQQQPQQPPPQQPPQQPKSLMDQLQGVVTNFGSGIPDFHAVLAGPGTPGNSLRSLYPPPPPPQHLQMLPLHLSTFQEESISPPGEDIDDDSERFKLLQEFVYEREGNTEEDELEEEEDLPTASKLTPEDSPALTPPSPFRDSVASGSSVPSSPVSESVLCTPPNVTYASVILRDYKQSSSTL

| SMILES | agonistic / antagonistic activity to the mGlu receptor | Remarks (agonist / antagonist) | agonist/antagonist (activity-data table) | IC50 (antagonist, tested against 10 μM glutamate as agonist, read-out: IC50 (compounds marked antagonist)) |
| --- | --- | --- | --- | --- |
| Cc1ccc(S(=O)(=O)N2CCCC2c2ccco2)cc1 (racemic) [Example 69, (RS)-2-Furan-2-yl-1-(toluene-4-sulfonyl)-pyrrolidine] | agonistic activty | Agonist | – | – |
| O=S(=O)(c1ccc(Cl)cc1)N1CCCC1c1ccccc1 (racemic) [Example 6, (RS)-1-(4-Chloro-benzenesulfonyl)-2-phenyl-pyrrolidine] | agonistic activty | Agonist | – | – |
| Cc1ccc(S(=O)(=O)N2CCCC2c2ccc(Cl)c(Cl)c2)cc1 (racemic) [Example 47, (RS)-2-(3,4-Dichloro-phenyl)-1-(toluene-4-sufonyl)-pyrrolidine] | – | Antagonist | – | – |
| Cc1ccc(S(=O)(=O)N2CCCC2c2cccc(F)c2)cc1 (racemic) [Example 1, (RS)-2-(3-Fluoro-phenyl)-1-(toluene-4-sulfonyl)-pyrrolidine] | – | Agonist | – | – |
| Cc1ccc(S(=O)(=O)N2CCCC2c2cccs2)cc1 (racemic) [Example 37, (RS)-2-Thien-2-yl-1-(toluene-4-sulfonyl)-pyrrolidine] | – | Antagonist | – | – |
| O=S(=O)(c1ccc2ccccc2c1)N1CCCC1c1ccc(F)cc1 (racemic) [Example 66, (RS)-2-(4-Fluoro-phenyl)-1-(naphthalene-2-sulfonyl)-pyrrolidine] | – | Antagonist | – | – |
| Cc1ccc(S(=O)(=O)N2CCCC2c2ccc(C)cc2C)cc1 (racemic) [Example 67, (RS)-2-(2,4-Dimethyl-phenyl)-1-(toluene-4-sulfonyl)-pyrrolidine] | – | Antagonist | – | – |
| O=S(=O)(c1ccccc1F)N1CCCC1c1ccc(F)cc1 (racemic) [Example 63, (RS)-1-(2-Fluoro-benzenesulfonyl)-2-(4-fluoro-phenyl)-pyrrolidine] | – | Antagonist | – | – |
| O=S(=O)(c1ccccc1)N1CCCC1c1ccc(F)cc1 (racemic) [Example 7, (RS)-1-Benzenesulfonyl-2-(4-fluoro-phenyl)-pyrrolidine] | – | Antagonist | antagonist | 8 µM |
| NCc1ccc(S(=O)(=O)N2CCCC2c2ccc(F)cc2)cc1 (racemic) [Example 87, (RS)-4-[2-(4-Fluoro-phenyl)-pyrrolidine-1-sulfonyl]-benzylamine fumarate (1:0.5)] | – | Antagonist | – | – |
| CN(C)c1ccc(C2CCCN2S(=O)(=O)c2ccc(Cl)cc2)cc1F (racemic) [Example 40, (RS)-1-(4-Chloro-benzenesulfonyl)-2-(4-dimethylamino-3-fluoro-phenyl)-pyrrolidine] | agonistic activty | Agonist | – | – |
| CCCc1ccc(S(=O)(=O)N2CCCC2c2ccc(F)cc2)cc1 (racemic) [Example 59, (RS)-2-(4-Fluoro-phenyl)-1-(4-propyl-benzenesulfonyl)-pyrrolidine] | – | Antagonist | – | – |
| Cc1ccc(S(=O)(=O)N2CCCC2c2ccc(Cl)c(C)c2)cc1 (racemic) [Example 58, (RS)-2-(4-Chloro-3-methyl-phenyl)-1-(toluene-4-sulfonyl)-pyrrolidine] | agonistic activty | Agonist | – | – |
| Cc1cccc(C2CCCN2S(=O)(=O)c2ccc(Cl)cc2)c1 (racemic) [Example 29, (RS)-1-(4-Chloro-benzenesulfonyl)-2-m-tolyl-pyrrolidine] | agonistic activty | Agonist | – | – |
| O=S(=O)(c1ccc(F)cc1)N1CCCC1c1ccc(F)c(Cl)c1 (racemic) [Example 44, (RS)-2-(3-Chloro-4-fluoro-phenyl)-1-(4-fluoro-benzenesulfonyl)-pyrrolidine] | – | Antagonist | – | – |
| Cc1ccc(S(=O)(=O)N2CCCC2c2ccccc2Cl)cc1 (racemic) [Example 51, (RS)-2-(2-Chloro-phenyl)-1-(toluene-4-sulfonyl)-pyrrolidine] | – | Antagonist | – | – |
| O=S(=O)(c1ccc(Cl)cc1)N1CCCC1c1ccsc1 (racemic) [Example 56, (RS)-1-(4-Chloro-benzenesulfonyl)-2-thien-3-yl-pyrrolidine] | agonistic activty | Agonist | – | – |
| O=S(=O)(c1ccc(Cl)cc1)N1CCCC1c1ccc(F)c(F)c1 (racemic) [Example 39, (RS)-1-(4-Chloro-benzenesulfonyl)-2-(3,4-difluoro-phenyl)-pyrrolidine] | agonistic activty | Agonist | – | – |
| O=S(=O)(c1ccc(Cl)cc1)N1CCCC1c1ccncc1 (racemic) [Example 14, (RS)-4-1-(4-Chloro-benzenesulfonyl)-pyrrolidine-pyridine] | – | Agonist | – | – |
| COc1cccc(C2CCCN2S(=O)(=O)c2ccc(Cl)cc2)c1 (racemic) [Example 34, (RS)-1-(4-Chloro-benzenesulfonyl)-2-(3-methoxy-phenyl)-pyrrolidine] | – | Antagonist | – | – |
| Cc1cccc(C2CCCN2S(=O)(=O)c2ccc(F)cc2)c1 (racemic) [Example 30, (RS)-1-(4-Fluoro-benzenesulfonyl)-2-m-tolyl-pyrrolidine] | – | Antagonist | – | – |
| O=S(=O)(c1ccc(Cl)cc1)N1CCC[C@@H]1c1ccc(F)cc1 [Example 76, (R)-1-(4-Chloro-benzenesulfonyl)-2-(4-fluoro-phenyl)-pyrrolidine] | – | Agonist | – | – |
| Cc1ccc(S(=O)(=O)N2CCCC2c2ccc(C(F)(F)F)cc2)cc1 (racemic) [Example 48, (RS)-1-(Toluene-4-sulfonyl)-2-(4-trifluoromethyl-phenyl)-pyrrolidine] | agonistic activty | Agonist | – | – |
